{"source": "patent US20050037446A1", "about": "“Agents that recognize src when phosphorylated at serine 17” (priority 2001, published 2005)", "test_system": "Rap1", "test": "Rap1 activation assay in Src++ and SYF fibroblasts", "format": "cell-based, mouse", "method": "The Rap1 activation affinity assay was performed as follows. A GST fusion protein of the Rap1-binding domain of RalGDS (GST-RalGDS, Dr. Bos, Utrecht University, The Netherlands) was expressed in E. coli following induction by isopropyl-1thio-β-D-galactopyranoside. Active Rap1 was isolated as previously described (Franke et al., EMBO J. 16:252-9, 1997). Briefly, equivalent amounts of supernatants (500 μg) were incubated with GST-RalGDS-Rap1 binding domain coupled to glutathione beads. Following a one hour incubation at 4° C., beads were pelleted and rinsed threes times with ice-cold lysis buffer. The protein was eluted from the beads using 2× Laemmli buffer and applied to a 12% SDS-polyacrylamide gel. […] Proteins were detected using enhanced chemiluminescence. […]\nFollowing selection, SYF cells were left untreated or stimulated with Forskolin in the presence or absence of H89 or PP2. Cells were lysed in ice-cold lysis buffer and the lysates analyzed by Western blot for phosphorylation of myc-ERK2 as described above. […]\nSYF cells were co-transfected with Flag-Rap1 and either vector, Flag-Src, or Flag-SrcS 17A and stimulated with Forskolin as described in the above examples. Cell lysates were examined for Rap1 activation using the method described in EXAMPLE 1 or analyzed by Western blot to identify Flag-containing proteins. […]", "data": [{"compound": "CC(C)NCC(O)c1ccc(O)c(O)c1", "note": "(centres unmarked) [isoproterenol]", "values": [{"measurement": "Rap1 activation by agonist", "setting": "SYF cells", "value": "absent"}, {"measurement": "Rap1 activation by agonist", "setting": "Src++ cells", "value": "retained"}]}]}
